Experimental findings from patent EP0114002B1, “Benzothiopyrano(4,3,2,-cd)indazoles, their pharmaceutical compositions and methods for their production” (WARNER-LAMBERT COMPANY, priority 1983, dated 1984) are described below.

Like-named read-outs stand apart in the source and are kept apart here. A value given as a limit tells only on which side of the number the result lay.

The test system of test [1] is HCT-8 cells. The test can be described thus: in vitro proliferating human colon adenocarcinoma (HCA) cell screen. The class given is cell-based. The protocol: One test protocol is the in vitro proliferating human colon adenocarcinoma (HCA) cell screen. In this test, HCT-8 cells (HCA cell line received from Yale University) are trypsinized using trypsin-EDTA. A single cell suspension is achieved by passing the cells through a 26 gauge needle with a 20 cc syringe. A cell suspension is prepared using RPMI 1640 + 10% FCS + 50) g/ml gentamicin sulfate with a cell concentration of approximately 30,000 cells/ml. The cell suspension is dispensed in Linbro 24-well plates; 1 ml/well. The plates are incubated for approximately 48 hours at 37°C in a 5% C02 atmosphere. At this time test compounds are added in the appropriate concentration. Five µl of the 200 µg/ml stock solution is added to each well in primary test. Ten µl of the appropirate dilution is added to each well for a titration test. The plates are re-incubated an additional 60 to 65 hours at 37°C in a 5% C02 atmosphere. The cells are lysed using a mix of cationic surfactant, glacial acetic acid, and sodium chloride. Two ml of the lysed cell suspension from each well is added to 8 ml of diluent. The number of nuclei is determined using a Coulter counter (ZBI model), and a percent growth for each drug concentration is calculated. From this, an ID50 molar concentration of a compound (that results in 50% inhibition of growth) is determined.

Test [2] relates to Aerobacter aerogenes 0126. In words: in vitro antibacterial/antifungal (ABF) agar-disk diffusion test. The class given is cell-based. The settings on record: Klebsiella aerogenes, read-out: ABF Zone Diameter (cont. in mg/ml) A. Aero-genes; for zone of inhibition at 3000 µg/mL: 3 mg/ml; for zone of inhibition at 500 µg/mL: 0.5 mg/ml. The protocol: (§1) Still another test protocol is the in vitro antibacterial/antifungal (ABF) test. Compounds are tested for antimicrobial activity in an agar-disk diffusion assay, a standard microbiological technique for testing antibiotics'. After incubation of each culture with a test compound, a zone of inhibition is determined. The zone diameter (mm) of active compounds ranges from a minimum of 13.5 mm to as high as 60 mm, with a greater diameter reflecting higher activity. For convenience, values are reported for two gram-negative bacteria (Aerobacter aerogenes 0126 and Escherichia coli 04863), two gram-positive bacteria (Bacillus subtilis 04555 and Streptococcus faecalis 05045 utilizing AM-09 medium), and one mycelial fungus (Penicillium avellaneum M2988).
(In general: A growth-free zone around the sample is the usual read-out of agar diffusion tests.)

Test [3] relates to Escherichia coli 04863. The test is described as above. The class given is cell-based. The settings on record: read-out: ABF Zone Diameter (cont. in mg/ml) E. Coli; for zone of inhibition at 3000 µg/mL: 3 mg/ml; for zone of inhibition at 100 µg/mL: 0.1 mg/ml. The protocol: as §1
The subject of test [4] is Streptococcus faecalis 05045. The description is as above. Type of test: cell-based. The settings on record: Enterococcus faecalis, AM-09 medium, read-out: ABF Zone Diameter (cont. in mg/ml) S. Fae-calis; for zone of inhibition at 3000 µg/mL: 3 mg/ml; for zone of inhibition at 1000 µg/mL: 1 mg/ml. The protocol: as §1
Test [5] relates to Penicillium avellaneum M2988. Described as above. Type of test: cell-based. The conditions noted are these: Hamigera avellanea, read-out: ABF Zone Diameter (cont. in mg/ml) P. Avell-aneum; for zone of inhibition at 3000 µg/mL: 3 mg/ml. How it is done: as §1
The subject of test [6] is Bacillus subtilis 04555. The test is described as above. Type of test: cell-based. The settings on record: read-out: ABF Zone Diameter (cont. in mg/ml) B. Sub-tilis; for zone of inhibition at 3000 µg/mL: 3 mg/ml; for zone of inhibition at 1000 µg/mL: 1 mg/ml; for zone of inhibition at 100 µg/mL: 0.1 mg/ml. How it is done:
as §1

The test system of test [7] is lymphocytic leukemia P388. The test can be described thus: in vivo lymphocytic leukemia P388 test. More on the design: species or system mice. The conditions noted are these: Mus musculus, P388, ip, 120 h, read-out: P388 in vivo T/C × 100; for response vs control in vivo at 12.5 mg/kg: Dose 12.50 mg/kg intraperitoneally once daily for five days; for response vs control in vivo at 25 mg/kg: Dose 25.00 mg/kg intraperitoneally once daily for five days; for response vs control in vivo at 50 mg/kg: Dose 50.00 mg/kg intraperitoneally once daily for five days. How it is done:
Another test protocol is the in vivo lymphocytic leukemia P388 test. The animals used are either male or female CD2F, mice. There are six or seven animals per test group. The tumor transplant is by intraperitoneal injection of dilute ascitic fluid containing cells of lymphocytic leukemia P388. The test compounds are administered intraperitoneally once daily for five consecutive days at various doses following tumor inoculation. The animals are weighed and survivors are recorded on a regular basis for 30 days. A compound is designated "toxic" if, at a given dose, all animals died prior to four days after the first injection of drug. A ratio of survival time for treated (T)/control (C) animals is calculated. A criterion for efficacy is a ratio T/C times 100 greater than or equal to 125. See Cancer Chemotherapy Reports, Part 3, 3; 1 (1972) for a comprehensive discussion of the protocol.

In test [8] the test system is L1210 cells. In words: L1210 murine leukemia cell growth inhibition in vitro. Type of test: cell-based. The settings on record: Mus musculus, 72 h. How it is done: Another test protocol uses L1210 cells, a murine leukemia cell line, grown in RPMI 1640 supplemented with 5% fetal bovine serum and gentamicin ([…]). Drug dilutions are prepared in the appropriate solvent and 20 µl of each dilution are added to 24-well Linbro tissue culture plates, followed by the addition of 2.0 ml of cell suspension containing 3 x 10^4 cells per ml. Solvent and medium controls are included in each test. After incubation at 37°C forthree days in 5% C02, the contents of each well are removed and the cells counted in a ZBI Coulter counter. Percent growth are calculated relative to the controls and the levels of drug activity are expressed as ID50 in moles per liter.

The mark [9] stands for this setting: Table 2, 60 to 65 hours with compound, read-out: HCA—3 in vitro IC50.
Where [10] appears, read: Table 2, three days incubation, read-out: L1210 in vitro IC50.
The mark [11] stands for this setting: Table 1, 60 to 65 hours with compound, 50% inhibition of growth, read-out: HCA—3 in vitro ID50.
[12] abbreviates: Table 1, three days incubation, 50% inhibition of growth, read-out: L1210 in vitro ID50.

As for `CCN(CC)CCn1nc2c3c(c(NCCNCCO)ccc31)Sc1c(O)ccc(O)c1-2` [2-[2-(Diethylamino)ethyl]-5-[[2-[(2-hydroxyethyl)amino]ethyl]amino]-2H[1]benzothiopyrano[4,3,2-cdlindazole-7,10-diol], the IC50 in test [1] (setting [9]) and in test [8] (setting [10]) was > 1500 nM throughout. Moreover, the zone of inhibition at 3000 µg/mL was found to be 14 mm in test [2], 0 mm in test [3], 0 mm in test [5] and 0 mm in test [6]. Besides, the zone of inhibition at 500 µg/mL in test [4] (0.5 mg/ml) turned out to be 15 mm. Besides, in test [7] (Dose 6.25 mg/kg intraperitoneally once daily for five days), the response vs control in vivo at 6.25 mg/kg came out at 123%. The response vs control in vivo at 12.5 mg/kg in test [7] came to 118%. Besides, the response vs control in vivo at 25 mg/kg in test [7] came out at 121%. In test [7], the response vs control in vivo at 50 mg/kg is 138%.
Turning to `CN(C)CCCn1nc2c3c(c(N)ccc31)Sc1ccccc1-2` [CH2CH2CH2N(CH3)2 / NH2], the IC50 in test [1] (setting [11]) was found to be 1800 nM; in test [8] (setting [12]), 2000 nM. Moreover, in test [2], the zone of inhibition at 500 µg/mL was 16 mm. Also, the zone of inhibition at 3000 µg/mL in test [3] worked out at 15 mm; in test [4], 15 mm; in test [5] it was 16 mm; in test [6] it was 0 mm. Also, the response vs control in vivo at 50 mg/kg in test [7] came to 121%. Besides, the response vs control in vivo at 100 mg/kg in test [7] (Dose 100.00 mg/kg intraperitoneally once daily for five days) stood at 182%. Further, the response vs control in vivo at 200 mg/kg in test [7] (Dose 200.00 mg/kg intraperitoneally once daily for five days, survival time treated/control) was 169%.
In the case of `CCN(CC)CCn1nc2c3c(c(N=CN(C)C)ccc31)Sc1ccccc1-2` [CH2CH2N(C2H5)2 / N=CHN(CH3)2, N'-[2-(2-(Diethylamino)ethyl]-2H[1]benzothiopyrano[4,3,2-cd]indazol-5-yl]-N,N-dimethyl-methanimidamide], the IC50 in test [1] (setting [11]) turned out to be 240 nM; in test [8] (setting [12]), 100 nM. Also, the zone of inhibition at 3000 µg/mL in test [2] worked out at 0 mm; in test [3], 0 mm; in test [4] it was 0 mm; in test [5], 16 mm. Also, in test [6], the zone of inhibition at 1000 µg/mL amounted to 16 mm. The response vs control in vivo at 25 mg/kg in test [7] amounted to 145%. For the same compound, in test [7], the response vs control in vivo at 50 mg/kg amounted to 206%.
In the case of `CCN(CC)CCn1nc2c3c(c(N)ccc31)Sc1c(O)ccc(O)c1-2` [CH2CH2N(C2H5)2 / NH2 / 7,10-(OH)2, 5-amino-2-[2-(diethylamino)ethyl]-2H[1]-benzothiopyrano[4;3,2-cd]indazole-7,10-diol], the IC50 in test [1] (setting [9]) and in test [8] (setting [10]) was > 2200 nM throughout. The zone of inhibition at 3000 µg/mL in test [2] is 0 mm; in test [3] it was 0 mm; in test [4], 19 mm; in test [5] it was 0 mm; in test [6], 0 mm.
As to `CCN(CC)CCn1nc2c3c(c(N)ccc31)Sc1ccccc1-2` [CH2CH2N(C2H5)2 / NH2, 5-Amino-N,N-diethyl-2H[1]benzothiopyrano[4,3,2-cd]indazole-2-ethanamine], the IC50 in test [1] (setting [11]) was determined as 1100 nM; in test [8] (setting [12]), 130 nM. In addition, the zone of inhibition at 3000 µg/mL in test [2], in test [3] and in test [6] was 0 mm throughout. The zone of inhibition at 1000 µg/mL in test [4] and in test [5] (1 mg/ml) was 14 mm throughout. Also, the response vs control in vivo at 12.5 mg/kg in test [7] is 144%. Further, the response vs control in vivo at 25 mg/kg in test [7] is 162%.
On to `CCN(CC)CCNc1ccc2c3c(nn2CCN(CC)CC)-c2ccccc2Sc13` [CH2CH2N(C2H5)2 / NHCH2CH2N(C2H5)2, 5-[[2-(Diethylamino)ethyl]amino]-N,N-diethyl-2H[1]-benzothiopyrano[4,3,2-cd]indazofe-2-ethanamine], for which the IC50 in test [1] (setting [11]) came to 450 nM; in test [8] (setting [12]), 140 nM. Further, the zone of inhibition at 500 µg/mL in test [2] stood at 14 mm. Also, the results for the zone of inhibition at 100 µg/mL in test [3] and in test [6] were 18 mm and 15 mm, respectively. Further, the results for the zone of inhibition at 3000 µg/mL in test [4] and in test [5] were 15 mm and 17 mm, respectively. Also, the response vs control in vivo at 25 mg/kg in test [7] came to 155%.
In the case of `NCCn1nc2c3c(c(NCCNCCO)ccc31)Sc1ccccc1-2` [CH2CH2NH2 / NHCH2NHCH2CH2OH, 2-[[2-[[2-(2-aminoethyl)-2H[1]benzothiopyrano[4,3,2-cd]indazol-5-yl]amino]ethyl]amino]ethanol], the IC50 in test [1] (setting [11]) came to 88 nM; in test [8] (setting [12]), 24 nM. For the same compound, the zone of inhibition at 500 µg/mL in test [2] and in test [6] (0.5 mg/ml) was 15 mm throughout. In addition, the zone of inhibition at 3000 µg/mL in test [3], in test [4] and in test [5] was 0 mm throughout.
Consider `NCCn1nc2c3c(c([N+](=O)[O-])ccc31)Sc1ccccc1-2` [CH2CH2NH2 / NO2 / 199—203, 5-Nitro-2H[1]benzothiopyrano[4,3,2-cd]indazole-2-ethanamine], for which the IC50 in test [1] (setting [11]) was found to be 200 nM. The zone of inhibition at 100 µg/mL in test [2] (0.1 mg/ml) was 18 mm; in test [3], 15 mm; in test [6], 17 mm. For the same compound, the zone of inhibition at 3000 µg/mL in test [4] and in test [5] was 0 mm in each case.
With `O=C1OCCN1CCNc1ccc2c3c(nn2CCNCCO)-c2ccccc2Sc13` [CH2CH2NHCH0H2OH /], the IC50 in test [1] (setting [11]) was 1400 nM; in test [8] (setting [12]) it was 570 nM. Moreover, the zone of inhibition at 1000 µg/mL was 14 mm in test [2] (1 mg/ml), 17 mm in test [4] and 16 mm in test [6]. For the same compound, the zone of inhibition at 3000 µg/mL in test [3] was determined as 15 mm; in test [5], 0 mm.
